Test system: voltage-gated sodium ion channels (NaV)
Test: Assays for detecting and measuring NaV inhibition (Table 3 activity)
Assay type: cell-based
Settings: NaV subtype and assay format not stated
Method: Compounds of the invention are useful as antagonists of voltage-gated sodium ion channels. Antagonist properties of test compounds were assessed as follows. Cells expressing the NaV of interest were placed into microtiter plates. After an incubation period, the cells were stained with fluorescent dyes sensitive to the transmembrane potential. The test compounds were added to the microtiter plate. The cells were stimulated with either a chemical or electrical means to evoke a NaV dependent membrane potential change from unblocked channels, which was detected and measured with trans-membrane potential-sensitive dyes. Antagonists were detected as a decreased membrane potential response to the stimulus. The optical membrane potential assay utilized voltage-sensitive FRET sensors described by Gonzalez and Tsien (See, Gonzalez, J. E. and R. Y. Tsien (1995) “Voltage sensing by fluorescence resonance energy transfer in single cells” Biophys J 69(4): 1272-80, and Gonzalez, J. E. and R. Y. Tsien (1997) “Improved indicators of cell membrane potential that use fluorescence resonance energy transfer” Chem Biol 4(4): 269-77) in combination with instrumentation for measuring fluorescence changes such as the Voltage/Ion Probe Reader (VIPR®) (See, Gonzalez, J. E., K. Oades, et al. (1999) “Cell-based assays and instrumentation for screening ion-channel targets” Drug Discov Today 4(9): 431-439).
VIPR® Optical Membrane Potential Assay Method with Chemical Stimulation
24 hours before the assay on VIPR, CHO cells […] expressing a NaV1.2 type voltage-gated NaV are seeded in 96-well poly-lysine coated plates at 60,000 cells per well. Other subtypes are performed in an analogous mode in a cell line expressing the NaV of interest. • 1) On the day of the assay, medium is aspirated and cells are washed twice with 225 μL of Bath Solution #2 (BS#2). • 2) A 15 μM CC2-DMPE solution is prepared by mixing 5 mM coumarin stock solution with 10% Pluronic 127 1:1 and then dissolving the mix in the appropriate volume of BS#2. • 3) After bath solution is removed from the 96-well plates, the cells are loaded with 80 μL of the CC2-DMPE solution. Plates are incubated in the dark for 30 minutes at room temperature. • 4) While the cells are being stained with coumarin, a […] oxonol solution in BS#2 is prepared. In addition to DiSBAC2(3), this solution should contain 0.75 mM ABSC1 and […] veratridine (prepared from 10 mM EtOH stock, Sigma #V-5754). • 5) After 30 minutes, CC2-DMPE is removed and the cells are washed twice with 225 μL of BS#2. As before, the residual volume should be 40 μL. • 6) Upon removing the bath, the cells are loaded with 80 μL of the DiSBAC2(3) solution, after which test compound, dissolved in DMSO, is added to achieve the desired test concentration to each well from the drug addition plate and mixed thoroughly. The volume in the well should be roughly 121 μL. The cells are then incubated for 20-30 minutes. • 7) Once the incubation is complete, the cells are ready to be assayed on VIPR® with a sodium addback protocol. 120 μL of Bath solution #1 is added to stimulate the NaV dependent depolarization. […] tetracaine was used as an antagonist positive control for block of the NaV channel. Analysis of VIPR® Data:
Data are analyzed and reported as normalized ratios of background-subtracted emission intensities measured in the 460 nm and 580 nm channels. Background intensities are then subtracted from each assay channel. Background intensities are obtained by measuring the emission intensities during the same time periods from identically treated assay wells in which there are no cells. The response as a function of time is then reported as the ratios obtained using the following formula: […]
The data is further reduced by calculating the initial (Ri) and final (Rf) ratios. These are the average ratio values during part or all of the pre-stimulation period, and during sample points during the stimulation period. […]

For `CNS(=O)(=O)C1CCN(C(=O)C(C)n2ccc3ccccc32)CC1` (centres unmarked) [Compound 1], the Activity was “None”.

`O=C(CCn1ccc2cc(Cl)ccc21)N1CCC(S(=O)(=O)Nc2ccccc2)CC1` [Compound 2, 1-[3-(5-chloro-1H-indol-1-yl)propanoyl]-N-phenyl-piperidine-4-sulfonamide] and `O=C(CCn1ccc2cc(Cl)ccc21)N1CCC(S(=O)(=O)Nc2ccccc2)C1` (centres unmarked) [Compound 16] fall in the same range of IC50: 5 to 20 µM for the first, 5 to 20 µM for the second.

`CC(C(=O)N1CCC(S(=O)(=O)Nc2ccccc2)CC1)n1ccc2ccccc21` (centres unmarked) [Compound 3, 1-[2-(1H-Indol-1-yl)propanoyl]-N-phenyl-piperidine-4-sulfonamide] and `CC(C(=O)N1CCC(S(=O)(=O)Nc2ccccc2)C1)n1ccc2ccccc21` (centres unmarked) [Compound 12, 1-[2-(1H-Indol-1-yl)propanoyl]-N-phenyl-pyrrolidine-3-sulfonamide] fall in the same range of IC50: 5 to 20 µM for the first, 5 to 20 µM for the second.

`O=C(COc1ccc(F)c(Cl)c1)N1CCC(S(=O)(=O)NCc2ccccc2)CC1` [Compound 4, N-Benzyl-1-[2-(3-chloro-4-fluoro-phenoxy)acetyl]-piperidine-4-sulfonamide] and `O=C(COc1ccc(F)c(Cl)c1)N1CCC(S(=O)(=O)NCc2ccccc2)C1` (centres unmarked) [Compound 13, N-Benzyl-1-[2-(3-chloro-4-fluoro-phenoxy)acetyl]-pyrrolidine-3-sulfonamide] fall in the same range of IC50: 5 to 20 µM for the first, 5 to 20 µM for the second.

First: O=C(COc1ccnc2c(C(F)(F)F)cccc12)N1CCC(S(=O)(=O)NCc2ccccc2)CC1 [Compound 5, N-Benzyl-1-[2-[[8-(trifluoromethyl)-4-quinolyl]oxy]acetyl]-piperidine-4-sulfonamide]
Second: O=C(COc1ccnc2c(C(F)(F)F)cccc12)N1CCC(S(=O)(=O)NCc2ccccc2)C1 (centres unmarked) [Compound 14]
The IC50 of the first is higher: over 20 µM for the first, 5 to 20 µM for the second. The second is the more potent here.

Compared with `CN(C)S(=O)(=O)C1CCN(C(=O)CCn2ccc3cc(Cl)ccc32)CC1` [Compound 7, 1-[3-(5-Chloro-1H-indol-1-yl)propanoyl]-N,N-dimethyl-piperidine-4-sulfonamide], `O=C(CCn1ccc2cc(Cl)ccc21)N1CCC(S(=O)(=O)N2CCCC2)C1` (centres unmarked) [Compound 10, 3-(5-Chloro-1H-indol-1-yl)-1-(3-pyrrolidin-1-ylsulfonylpyrrolidin-1-yl)-propan-1-one] is lower in IC50: over 20 µM for the first, 5 to 20 µM for the second. The second is the more potent here.

`O=C(COc1ccnc2c(C(F)(F)F)cccc12)N1CCC(S(=O)(=O)N2CCCC2)C1` (centres unmarked) [Compound 11, 1-(3-Pyrrolidin-1-ylsulfonylpyrrolidin-1-yl)-2-[[8-(trifluoromethyl)-4-quinoly]oxy]ethanone] and `O=C(COc1ccnc2c(C(F)(F)F)cccc12)N1CCC(S(=O)(=O)N2CCCC2)CC1` [Compound 20] cannot be ordered by IC50: over 20 µM for the first, over 20 µM for the second.

First: O=C(COc1ccc(F)c(Cl)c1)N1CCC(S(=O)(=O)Nc2ccccc2)C1 (centres unmarked) [Compound 15]
Second: O=C(COc1ccc(F)c(Cl)c1)N1CCC(S(=O)(=O)N2CCCC2)C1 (centres unmarked) [Compound 18]
The IC50 of the first is lower: 5 to 20 µM for the first, over 20 µM for the second. The first is the more potent here.

First: CC(C(=O)N1CCC(S(=O)(=O)NCc2ccccc2)C1)n1ccc2ccccc21 (centres unmarked) [Compound 17]
Second: CC(C(=O)N1CCC(S(=O)(=O)N2CCCC2)C1)n1ccc2ccccc21 (centres unmarked) [Compound 21]
The IC50 of the first is lower: 5 to 20 µM for the first, over 20 µM for the second. The first is the more potent here.

Compared with `O=C(CCn1ccc2cc(Cl)ccc21)N1CCC(S(=O)(=O)NCc2ccccc2)CC1` [Compound 19], `CNS(=O)(=O)C1CCN(C(=O)COc2ccnc3c(C(F)(F)F)cccc23)CC1` [Compound 23] is higher in IC50: 5 to 20 µM for the first, over 20 µM for the second. The first is the more potent here.

Test system: not given
Test: not given
Settings: neuropathic pain; cited from earlier work

In the case of `NCC1(CC(=O)O)CCCCC1` [Gabapentin], the “share of patients in whom it works” value is listed as 60%.

— patent US8129546B2, “Derivatives for modulation of ion channels” (Vertex Pharmaceuticals Incorporated, priority 2005, dated 2012)
